Source: US5393744A, “Glucosyl phosphotriesters of thymidine” (Institut Pasteur, priority 1988, dated 1995)
Where two headings read alike, the source gives them in different places.

Columns and labels:
[1] = tested on: HIV-1 virus; assay: Replication of HIV-1 in macrophages of sero-negative donors, continuous culture (reverse transcriptase activity); format: cell-based
Method: The drugs 6651, AZT, 6714 and ddT were diluted in DMSO.
The virus HIV-1 utilized is derived from a culture supernatant of CEM-LAV 1 cells; these latter are maintained by the addition at each passage (every 3 or 4 days) of uninfected CEM cells. The titre of the virus in the clarified culture supernatant is higher than 10^6 cpm/ml in reverse transcriptase activity and 10^3 infectious units/ml on lymphocytes of sero-negative donors.
The macrophages were obtained from a deleucocytation pocket. The mononucleated cells were separated on a Ficoll^R gradient. The cells were adjusted to 50.10^6 cells/ml in the RPMI 1640 medium (MBA) containing 20% fetal calf serum (Flow), 10 mM Hepes (Sigma), 1% of PSN and 1% of glutamine (Gibco). After 1 h of incubation at 4° C. with gentle shaking, the macrophages agglutinate among themselves. The agglutinated macrophages are sedimented for 15 mn at 4° C. The supernatant containing an enrichment in lymphocytes was removed and the pellet enriched in macrophages was diluted to 5.10^6 cells/ml in the medium previously described. The cell suspension was then placed in Petri dishes of 60 mm diameter and placed at 37° C. for 1 h 30. The unattached cells are removed and the washed cell carpet was then detached with a scraper. The cells thus recovered were used directly for the study.
For this study, the production of HIV-1 virus by infected macrophages in the presence or absence of the drugs 6714 or ddT and 6651 or AZT were monitored either in continuous culture for at least 30 days or after lysis of the macrophages at day +14 and infection of lymphocytes by this lysate.
For each test, 15.10^6 cells were or were not infected with the HIV-1 virus (6000 cpm/10^6 cells). After 1 h of absorption at 37° C., the cells were placed in 6-wells Costar plates and 5.10^-5 M or 10^-5 M of the drugs 6714 and ddT and 10^-5 M, 10^-6 M or 10^-7 M of the drugs 6651 and AZT were added to the culture medium. The medium was changed every 3 or 4 days and the reverse transcriptase activity was determined in the culture supernatant. The drugs were added at each passage to the culture medium at the respective concentrations indicated above.
3) Measurement of the reverse transcriptase activity
The reverse transcriptase activity is assayed starting from 1 ml of culture supernatant concentrated 100 times by ultra-centrifugation for 5 mn at 95.000 rpm (Rotor TL 100^R Beckman).
The pellet is resuspended in 10 μl of NTE Triton^R ×100 0.1%.
After 1 h at 37° C., the acid-insoluble products are precipitated by 20% trichloroacetic acid, filtered onto 0.45μ Millipore^R and the B radioactivity is measured with the aid of a Kontron scintillation counter.

[2] = tested on: HIV-1 virus; assay: Action of the products on the cytopathogenic effect of the HIV-1 virus in MT4 cells; format: cell-based, HIV-1 virus (LAV strain); settings: for minimal effective concentration: Human immunodeficiency virus 1, MT4, 168 h
Method: (§1) Each product was dissolved in DMSO at a concentration of 10^-3 M (stock solution), then in the culture medium immediately before use. The solution thus obtained was sterilized by filtration on a 0.22μ Millipore, then successive dilutions were made in the culture medium.
The line of MT4 cells is cultivated at a concentration of 3×10^5 cells/ml in a RPM1640 medium containing 10% of fetal calf serum, 1% of antibiotics and 1% of glummine.
The action of the products on the cytopathogenic effect of the HIV-1 virus was studied with the aid of the line of MT4 cells. This line is a line of human T cells transformed by the HTLV-1 virus. These cells are particularly sensitive to the HIV-1 virus since 6 to 7 days after superinfection by tiny quantities of HIV-1 virus, they show a considerable cytopathogenic effect leading to the death of 10 to 80% of the cells. The cytopathogenic effect is directly correlated with the infection of the cells by the virus, with its intracellular replication and with the expression of the viral antigens by the cells. An inhibition of this effect thus corresponds to an inhibition of the multiplication of the HIV-1 virus.
It is a question of supernatants of lymphoblastoid T cells (CEM line) infected by the HIV-1 virus (LAV strain). The activity of the undiluted viral preparation used for the human lymphocytes was 20000 cpm/ml.
d) Action of the products on the cytopathogenic effect of the HIV-1 virus in the case of the MT4 cells. Study of the treatment after viral absorption.
The MT4 cells were infected by 100 μl of HIV-1 virus for 3.10^5 cells in a volume of 1 ml. […]
At day +3, the cell suspensions were restored to 3.10^5 cells/ml after dilution with fresh medium. The product was added at the corresponding doses.
At day +7, the cytopathogenic effect was evaluated with the microscope after staining with trypan blue.

[3] = tested on: human T lymphocytes; assay: Cytotoxicity of the products for human T lymphocytes; format: cell-based
Method: as §1
The cultures of human T lymphocytes are maintained in the medium RPMI 1640 containing 10% fetal calf serum (Seromeal), 1% of glummine (Gibco), 1% of antibiotics (PSN, Gibco), 10% of interleukin II (Biotest), 2 μg/ml of polybrene (Sigma) and a 1/2500 dilution of α-human semm-interferon. This medium is called complete medium.
The cytotoxicity of the products was studied on human T lymphocytes obtained from peripheral blood of a sero-negative donor. Prior to the treatment, these lymphocytes are stimulated by phytohemagglutinin p (pHAp) (Difco) for 3 days.
a) Study of the cytotoxicity of the products for the T cells.
10^6 lymphocytes stimulated by pHAp were treated for 10 days by increasing doses of the product (10^-5 M; 5×10^-6 M; 10^-6 M). The product was added at each cell passage carried out every 3 or 4 days. At each passage, the cells were counted after staining with trypan blue then resuspended at 10^6 cells per ml in the complete medium containing or not increasing doses of the product. This experiment was carried out in a plate with 24 wells (Munc).

Row | SMILES | proliferation of the HIV-1 virus in the macrophages ([1]; 10^-5 M, 10^-6 M and 10^-7 M) | Cytopathogenic Effect at Day +7 ([2]; 5 × 10^-6 M, Experiment No. 1) | Cytopathogenic Effect at Day +7 ([2]; 5 × 10^-6 M, Experiment No. 2) | Cytopathogenic Effect at Day +7 ([2]; 5 × 10^-7 M, Experiment No. 1) | Cytopathogenic Effect at Day +7 ([2]; 5 × 10^-7 M, Experiment No. 2) | Cytopathogenic Effect at Day +7 ([2]; 10^-5 M, Experiment No. 1) | Cytopathogenic Effect at Day +7 ([2]; 10^-5 M, Experiment No. 2) | Cytopathogenic Effect at Day +7 ([2]; 10^-6 M, Experiment No. 1) | Cytopathogenic Effect at Day +7 ([2]; 10^-6 M, Experiment No. 2) | minimal effective concentration ([2]; first experiment, MT4 cells, read-out: concentration at which the product inhibits the cytopathogenic effect) [µM] | minimal effective concentration ([2]; second experiment, MT4 cells, read-out: concentration at which the product inhibits the cytopathogenic effect) [µM] | effect on the growth of T cells ([3]; treatment of 10 days, at the doses used (FIG. 1)) | proliferation of the HIV-1 virus in the macrophages ([1]; 5.10^-5 M and 10^-5 M) | minimal effective concentration ([2]; read-out: concentration at which the product inhibits the cytopathogenic potency of the virus) [µM] | effect on cell multiplication ([3]; same doses, 3 days)
1 | CCCCCCCCCCCCCCCCOP(=O)(OC[C@H]1OC(O)[C@H](O)[C@@H](O)[C@@H]1O)OC[C@H]1O[C@@H](n2cc(C)c(=O)[nH]c2=O)C[C@@H]1N=[N+]=[N-] (stereo partly drawn) [compound 6651, 6-glucosyl hexadecyl 5'-(3'-azido) thymidinyl phosphate] | block the proliferation of the HIV-1 virus in the macrophages | - | + (100% death of the cells at day +7) | + (100% death of the cells at day +7) | + (100% death of the cells at day +7) | - | - | - | + (100% death of the cells at day +7) | 1 | 10 | without significant effect on the growth of T cells |  |  | 
2 | Cc1cn([C@H]2CC[C@@H](COP(=O)(O)OC[C@H]3OC(O)[C@H](O)[C@@H](O)[C@@H]3O)O2)c(=O)[nH]c1=O (stereo partly drawn) [compound 6714, 6-glucosyl 5'-(3'-deoxy)-thymidinyl phosphate] |  |  | + (100% death of the cells at day +7) |  |  |  | - |  | + (100% death of the cells at day +7) |  |  |  | block the proliferation of the HIV-1 virus in the macrophages | 10 | no effect is observed on cell multiplication
